Measured values reported in US20240041832A1, “METHODS AND COMPOSITIONS FOR TREATING EYE DISEASES” (JENIVISION INC., priority 2021, published 2024).
Each block holds one compound with its values, some of them ahead of it.

Tests used:
[1] = Biodistribution of DHA after periorbital skin administration (Example 4); type: in vivo, cynomolgus monkeys; details: for concentration at 0.5 h / concentration at 24 h / concentration at 3 h / concentration at 6 h: cynomolgus monkey, topical; for concentration at 0.5 h: 6567.89 μg/left eye; for concentration at 24 h: 6746.51 μg/left eye; for concentration at 3 h: 6768.26 μg/left eye; for concentration at 6 h: 7017.66 μg/left eye
Method: (§1) This is supported by results obtained with a markedly different compound docosahexaenoic acid (DHA), which are shown in Table 2. An oil solution comprising 14.85 mg/mL β-Carotene+198.02 mg/ml DHA in linoleic acid was administered to one eye (OD) by circumferential topical application to the periorbital skin that surrounds the anterior portion of the globe. Blood samples (1 mL) and were collected at 0, 0.5, 2, 6, and 24 hours after a single administration to the periorbital skin of the right eye (OD) At each of the above pre-designated time points, one animal was euthanized after blood collection and selected eye tissue samples were collected from both eyes. The following representative tissues were collected; upper eyelid, cornea, retina, and vitreous humor. DHA concentrations in the samples were determined by the LC-MS/MS method. The DHA was administered via NIODP at the dose of 6775.1±92.5 μg per eye (mean±SEM), to the left eye of monkeys in the pharmacokinetics and biodistribution study. Again, for convenience of sample processing, only upper eyelids were collected. Substantial quantities of DHA (>10 μg/g) remained in the upper eyelid/periorbital region, retina, and cornea, at all tested time points of 0.5, 3, 6 and 24-hour post dosing. […] Compared to the BLQ baseline, plasma concentrations of DHA were between 1.2 and 3.1 μg/ml, equivalent to […] (MW 328.5) via NIODP. The plasma Cmax was at 0.5 hours post-dose.

[2] = Biodistribution of Beta-Carotene after periorbital skin administration (Example 4); type: in vivo, cynomolgus monkeys; details: for concentration at 3 h / concentration at 0.5 h / concentration at 6 h / concentration at 24 h: cynomolgus monkey, topical; for concentration at 3 h: 507.6 μg/left eye
Method: [The procedure below names another target; the source lists this target under the same test.] as §1
Thus, not all compounds are readily uptaken and distributed to the posterior area of the eye.

[3] = 0.5 h, 6567.89 μg/left eye periorbital skin
[4] = 3 h, 6768.26 μg/left eye periorbital skin
[5] = 6 h, 7017.66 μg/left eye periorbital skin
[6] = 24 h, 6746.51 μg/left eye periorbital skin
[7] = 0.5 h, 492.59 μg/left eye periorbital skin
[8] = 3 h, 507.60 μg/left eye periorbital skin
[9] = 6 h, 526.32 μg/left eye periorbital skin
[10] = 24 h, 505.99 μg/left eye periorbital skin

- maximum in retina ([1]; 0.5-hour post dosing): 111 µg/g
- % of administered dose, Left cornea [1, 3]: 0.03%
- % of administered dose, Left retina [1, 3]: 0.04%
- % of administered dose, Left upper eyelid [1, 3]: 0.42%
- % of administered dose, Left vitreous humor [1, 3]: 0.00%
- Drug Concentration in Plasma ([1]; 0.5 h, 6567.89 μg/left eye periorbital skin, animal 101): 2160 ng/mL
- % of administered dose, Left cornea [1, 4]: 0.01%
- % of administered dose, Left retina [1, 4]: 0.04%
- % of administered dose, Left upper eyelid [1, 4]: 0.38%
- % of administered dose, Left vitreous humor [1, 4]: 0.00%
- Drug Concentration in Plasma ([1]; 3 h, 6768.26 μg/left eye periorbital skin, animal 102): 3130 ng/mL
- % of administered dose, Left cornea [1, 5]: 0.01%
- % of administered dose, Left retina [1, 5]: 0.01%
- % of administered dose, Left upper eyelid [1, 5]: 0.01%
- % of administered dose, Left vitreous humor [1, 5]: 0.00%
- Drug Concentration in Plasma ([1]; 6 h, 7017.66 μg/left eye periorbital skin, animal 103): 2110 ng/mL
- % of administered dose, Left cornea [1, 6]: 0.02%
- % of administered dose, Left retina [1, 6]: 0.03%
- % of administered dose, Left upper eyelid [1, 6]: 0.02%
- % of administered dose, Left vitreous humor [1, 6]: 0.00%
- Drug Concentration in Plasma ([1]; 24 h, 6746.51 μg/left eye periorbital skin, animal 104): 1150 ng/mL
- DHA in vitreous humor ([1]; LLOQ 0.5 μg/ml): below the limit of quantification (BLQ)
- DHA in upper eyelid/periorbital region, retina and cornea ([1]; all tested time points of 0.5, 3, 6 and 24-hour, NIODP 6775.1±92.5 μg per eye): > 10 µg/g
- concentration at 0.5 h ([1]; left cornea, 0.5 h, 6567.89 μg/left eye periorbital skin, read-out: Drug Concentration in Tissue, Left cornea): 66300 ng/g
- concentration at 24 h ([1]; left cornea, 24 h, 6746.51 μg/left eye periorbital skin, read-out: Drug Concentration in Tissue, Left cornea): 25900 ng/g
- concentration at 3 h ([1]; left cornea, 3 h, 6768.26 μg/left eye periorbital skin, read-out: Drug Concentration in Tissue, Left cornea): 21600 ng/g
- concentration at 6 h ([1]; left cornea, 6 h, 7017.66 μg/left eye periorbital skin, read-out: Drug Concentration in Tissue, Left cornea): 22300 ng/g
- concentration at 0.5 h ([1]; left retina, 0.5 h, 6567.89 μg/left eye periorbital skin, read-out: Drug Concentration in Tissue, Left retina): 111000 ng/g
- concentration at 24 h ([1]; left retina, 24 h, 6746.51 μg/left eye periorbital skin, read-out: Drug Concentration in Tissue, Left retina): 47300 ng/g
- concentration at 3 h ([1]; left retina, 3 h, 6768.26 μg/left eye periorbital skin, read-out: Drug Concentration in Tissue, Left retina): 66700 ng/g
- concentration at 6 h ([1]; left retina, 6 h, 7017.66 μg/left eye periorbital skin, read-out: Drug Concentration in Tissue, Left retina): 78600 ng/g
- concentration at 0.5 h ([1]; left upper eyelid, 0.5 h, 6567.89 μg/left eye periorbital skin, read-out: Drug Concentration in Tissue, Left upper eyelid): 381000 ng/g
- concentration at 24 h ([1]; left upper eyelid, 24 h, 6746.51 μg/left eye periorbital skin, read-out: Drug Concentration in Tissue, Left upper eyelid): 16200 ng/g
- concentration at 3 h ([1]; left upper eyelid, 3 h, 6768.26 μg/left eye periorbital skin, read-out: Drug Concentration in Tissue, Left upper eyelid): 420000 ng/g
- concentration at 6 h ([1]; left upper eyelid, 6 h, 7017.66 μg/left eye periorbital skin, read-out: Drug Concentration in Tissue, Left upper eyelid): 10700 ng/g
- concentration at 0.5 h ([1]; left vitreous humor, 0.5 h, 6567.89 μg/left eye periorbital skin, BLQ given 0, read-out: Drug Concentration in Tissue, Left vitreous humor): 0 ng/g
- concentration at 24 h ([1]; left vitreous humor, 24 h, 6746.51 μg/left eye periorbital skin, BLQ given 0, read-out: Drug Concentration in Tissue, Left vitreous humor): 0 ng/g
- concentration at 3 h ([1]; left vitreous humor, 3 h, 6768.26 μg/left eye periorbital skin, BLQ given 0, read-out: Drug Concentration in Tissue, Left vitreous humor): 0 ng/g
- concentration at 6 h ([1]; left vitreous humor, 6 h, 7017.66 μg/left eye periorbital skin, BLQ given 0, read-out: Drug Concentration in Tissue, Left vitreous humor): 0 ng/g
- concentration at 0.5 h ([1]; plasma, 0.5 h, 6567.89 μg/left eye periorbital skin, animal 101, read-out: Drug Concentration in Plasma): 2200 ng/mL
- concentration at 24 h ([1]; plasma, 24 h, 6746.51 μg/left eye periorbital skin, animal 104, read-out: Drug Concentration in Plasma): 1200 ng/mL
- concentration at 3 h ([1]; plasma, 3 h, 6768.26 μg/left eye periorbital skin, animal 102, read-out: Drug Concentration in Plasma): 3100 ng/mL
- concentration at 6 h ([1]; plasma, 6 h, 7017.66 μg/left eye periorbital skin, animal 103, read-out: Drug Concentration in Plasma): 2100 ng/mL
- dose gradient via NIODP ([1]; periorbital skin): eyelid≈retina>cornea>>vitreous humor=0
SMILES: CC/C=C\C/C=C\C/C=C\C/C=C\C/C=C\C/C=C\CCC(=O)O [DHA, docosahexaenoic acid]

- % of administered dose, Left cornea [2, 7]: 0.000%
- % of administered dose, Left retina [2, 7]: 0.000%
- % of administered dose, Left upper eyelid [2, 7]: 0.19%
- % of administered dose, Left vitreous humor [2, 7]: 0.000%
- Drug Concentration in Plasma ([2]; 0.5 h, 492.59 μg/left eye periorbital skin, animal 101): BLQ
- % of administered dose, Left cornea [2, 8]: 0.000%
- % of administered dose, Left retina [2, 8]: 0.000%
- % of administered dose, Left upper eyelid [2, 8]: 0.44%
- % of administered dose, Left vitreous humor [2, 8]: 0.000%
- Drug Concentration in Plasma ([2]; 3 h, 507.60 μg/left eye periorbital skin, animal 102): BLQ
- % of administered dose, Left cornea [2, 9]: 0.000%
- % of administered dose, Left retina [2, 9]: 0.000%
- % of administered dose, Left upper eyelid [2, 9]: 0.000%
- % of administered dose, Left vitreous humor [2, 9]: 0.000%
- Drug Concentration in Plasma ([2]; 6 h, 526.32 μg/left eye periorbital skin, animal 103): BLQ
- % of administered dose, Left cornea [2, 10]: 0.000%
- % of administered dose, Left retina [2, 10]: 0.000%
- % of administered dose, Left upper eyelid [2, 10]: 0.000%
- % of administered dose, Left vitreous humor [2, 10]: 0.000%
- Drug Concentration in Plasma ([2]; 24 h, 505.99 μg/left eye periorbital skin, animal 104): BLQ
- concentration at 3 h ([2]; cornea, 3 h, 507.60 μg/left eye periorbital skin, read-out: Drug Concentration in Tissue, Cornea): 0 ng/g
- concentration at 0.5 h ([2]; cornea, 0.5 h, 492.59 μg/left eye periorbital skin, read-out: Drug Concentration in Tissue, Cornea): 0 ng/g
- concentration at 6 h ([2]; cornea, 6 h, 526.32 μg/left eye periorbital skin, read-out: Drug Concentration in Tissue, Cornea): 0 ng/g
- concentration at 24 h ([2]; cornea, 24 h, 505.99 μg/left eye periorbital skin, read-out: Drug Concentration in Tissue, Cornea): 0 ng/g
- concentration at 3 h ([2]; retina, 3 h, 507.60 μg/left eye periorbital skin, read-out: Drug Concentration in Tissue, Retina): 0 ng/g
- concentration at 0.5 h ([2]; retina, 0.5 h, 492.59 μg/left eye periorbital skin, read-out: Drug Concentration in Tissue, Retina): 0 ng/g
- concentration at 6 h ([2]; retina, 6 h, 526.32 μg/left eye periorbital skin, read-out: Drug Concentration in Tissue, Retina): 0 ng/g
- concentration at 24 h ([2]; retina, 24 h, 505.99 μg/left eye periorbital skin, read-out: Drug Concentration in Tissue, Retina): 0 ng/g
- concentration at 3 h ([2]; upper eyelid, 3 h, 507.60 μg/left eye periorbital skin, read-out: Drug Concentration in Tissue, Upper eyelid): 36000 ng/g
- concentration at 0.5 h ([2]; upper eyelid, 0.5 h, 492.59 μg/left eye periorbital skin, read-out: Drug Concentration in Tissue, Upper eyelid): 12600 ng/g
- concentration at 6 h ([2]; upper eyelid, 6 h, 526.32 μg/left eye periorbital skin, read-out: Drug Concentration in Tissue, Upper eyelid): 0 ng/g
- concentration at 24 h ([2]; upper eyelid, 24 h, 505.99 μg/left eye periorbital skin, read-out: Drug Concentration in Tissue, Upper eyelid): 0 ng/g
- concentration at 3 h ([2]; vitreous humor, 3 h, 507.60 μg/left eye periorbital skin, read-out: Drug Concentration in Tissue, Vitreous humor): 0 ng/g
- concentration at 0.5 h ([2]; vitreous humor, 0.5 h, 492.59 μg/left eye periorbital skin, read-out: Drug Concentration in Tissue, Vitreous humor): 0 ng/g
- concentration at 6 h ([2]; vitreous humor, 6 h, 526.32 μg/left eye periorbital skin, read-out: Drug Concentration in Tissue, Vitreous humor): 0 ng/g
- concentration at 24 h ([2]; vitreous humor, 24 h, 505.99 μg/left eye periorbital skin, read-out: Drug Concentration in Tissue, Vitreous humor): 0 ng/g
SMILES: CC1=C(/C=C/C(C)=C/C=C/C(C)=C/C=C/C=C(C)/C=C/C=C(C)/C=C/C2=C(C)CCCC2(C)C)C(C)(C)CCC1 [Beta-Carotene, β-Carotene]
- uptake and biodistribution following periorbital administration ([2]; compared with DHA in the same formulation): not as readily uptaken and biodistributed
